Source: patent US4231928A, “Antibacterial agents” (priority 1979, dated 1980)
Values after ≈ are worked out from the molar mass of the structure shown. Read-outs that look alike come from different tables or passages of the source.

Columns and labels:
K. pneumoniae = assay: Serial twofold agar dilution (Mueller-Hinton agar), K. pneumoniae; assay type: cell-based; details: Klebsiella pneumoniae, K. pneumoniae A9977, Table 8, read-out: MIC
Summary of the method: (§1)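 Read-out is the minimum inhibitory concentration from a serial twofold agar dilution series on Mueller-Hinton agar, plated using Steers' apparatus.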

S. marcescens = assay: Serial twofold agar dilution (Mueller-Hinton agar), S. marcescens; assay type: cell-based; details: Serratia marcescens, S. marcescens A20019, Table 8
Summary of the method: as §1

S. aureus = assay: Serial twofold agar dilution (Mueller-Hinton agar), S. aureus; assay type: cell-based; details: Staphylococcus aureus
Summary of the method: as §1

P. morganii = assay: Serial twofold agar dilution (Mueller-Hinton agar), P. morganii; assay type: cell-based; details: Morganella morganii, P. morganii A9553, Table 8, read-out: MIC
Summary of the method: as §1

E. cloacae = assay: Serial twofold agar dilution (Mueller-Hinton agar), E. cloacae; assay type: cell-based; details: Enterobacter cloacae
Summary of the method: as §1

Pseudomonas sp. = assay: Serial twofold agar dilution (Mueller-Hinton agar), Pseudomonas sp.; assay type: cell-based; details: Pseudomonas sp. A20358, Table 8, read-out: MIC
Summary of the method: as §1

S. enteritidis = assay: Serial twofold agar dilution (Mueller-Hinton agar), S. enteritidis; assay type: cell-based; details: Salmonella enterica, S. enteritidis A9531, Table 8, read-out: MIC
Summary of the method: as §1

Pseudomonas aeruginosa = assay: Serial twofold agar dilution (Mueller-Hinton agar), P. aeruginosa; assay type: cell-based; details: Pseudomonas aeruginosa
Summary of the method: as §1

[1] = Mouse blood levels after subcutaneous administration; details: in vivo, sc, 20 mg/kg
Method: Mouse blood levels of BB-[…] and BB-[…] were determined by subcutaneous administration of 20 mg/kg of the penicillin to groups of three mice. Blood samples collected from orbital sinuses were assayed by the paper disk agar-diffusion method on Sarcina lutea PC1 1001 plates.

P. mirabilis = assay: Serial twofold agar dilution (Mueller-Hinton agar), P. mirabilis; assay type: cell-based; details: Proteus mirabilis, P. mirabilis A9900; Mueller-Hinton agar; Table 8; read-out: MIC
Summary of the method: as §1

Klebsiella sp. = assay: Serial twofold agar dilution (Mueller-Hinton agar), Klebsiella sp.; assay type: cell-based; details: Klebsiella sp. A20452, Mueller-Hinton agar, Table 8, read-out: MIC
Summary of the method: as §1

P. vulgaris = assay: Serial twofold agar dilution (Mueller-Hinton agar), P. vulgaris; assay type: cell-based; details: Proteus vulgaris, P. vulgaris A9539, Table 8, read-out: MIC
Summary of the method: as §1

E. coli = assay: Serial twofold agar dilution (Mueller-Hinton agar), E. coli; assay type: cell-based; details: Escherichia coli
Summary of the method: as §1

## CC1(C)S[C@@H]2[C@H](NC(=O)C(C(=O)O)c3ccccc3)C(=O)N2[C@H]1C(=O)O (stereo partly drawn) [Carbenicillin, reference compound]
K. pneumoniae
  MIC: 3.1 µg/mL (≈ 8.19 µM)
S. marcescens
  MIC: 3.1 µg/mL (≈ 8.19 µM)
S. aureus; S. aureus A15097, Table 8, read-out: MIC
  MIC: 50 µg/mL (≈ 132 µM)
S. aureus; S. aureus A20239, Table 8, read-out: MIC
  MIC: 6.3 µg/mL (≈ 16.6 µM)
S. aureus; S. aureus A20240, Table 8, read-out: MIC
  MIC: 3.1 µg/mL (≈ 8.19 µM)
S. aureus; S. aureus A20701, Table 8, read-out: MIC
  MIC: 50 µg/mL (≈ 132 µM)
S. aureus; S. aureus BX-1633 A9606, Table 8, read-out: MIC
  MIC: 6.3 µg/mL (≈ 16.6 µM)
S. aureus; S. aureus Smith A9537, Table 8, read-out: MIC
  MIC: 0.2 µg/mL (≈ 0.529 µM)
P. morganii
  MIC: > 100 µg/mL
E. cloacae; E. cloacae A9656, Table 8
  MIC: 3.1 µg/mL (≈ 8.19 µM)
E. cloacae; E. cloacae A9657, Table 8
  MIC: 25 µg/mL (≈ 66.1 µM)
E. cloacae; E. cloacae A9659, Table 8
  MIC: 3.1 µg/mL (≈ 8.19 µM)
Pseudomonas sp.
  MIC: 3.1 µg/mL (≈ 8.19 µM)
S. enteritidis
  MIC: 0.8 µg/mL (≈ 2.11 µM)
Pseudomonas aeruginosa; 61 strains of P. aeruginosa, Table 9, read-out: Geometric mean of MIC
  MIC: 30 µg/mL (≈ 79.2 µM)
Pseudomonas aeruginosa; ATCC19660, Pa-14 ATCC 19660 A20325, Mueller-Hinton agar, Table 9, read-out: MIC
  MIC: 50 µg/mL (≈ 132 µM)
Pseudomonas aeruginosa; GN315, Pa-27 GN315 A21294, Mueller-Hinton agar, Table 9, read-out: MIC
  MIC: 25 µg/mL (≈ 66.1 µM)
Pseudomonas aeruginosa; GN4925, Pa-45 GN 4925, Mueller-Hinton agar, Table 9, read-out: MIC
  MIC: 100 µg/mL (≈ 264 µM)
Pseudomonas aeruginosa; P. aeruginosa A9843, Mueller-Hinton agar, Table 8, read-out: MIC
  MIC: 25 µg/mL (≈ 66.1 µM)
Pseudomonas aeruginosa; P. aeruginosa A9930, Mueller-Hinton agar, Table 8, read-out: MIC
  MIC: 25 µg/mL (≈ 66.1 µM)
Pseudomonas aeruginosa; P. aeruginosa A15150, Mueller-Hinton agar, Table 8, read-out: MIC
  MIC: 25 µg/mL (≈ 66.1 µM)
Pseudomonas aeruginosa; P. aeruginosa A20717, Mueller-Hinton agar, Table 8, read-out: MIC
  MIC: 100 µg/mL (≈ 264 µM)
Pseudomonas aeruginosa; Pa-1 D15, Mueller-Hinton agar, Table 9, read-out: MIC
  MIC: 12.5 µg/mL (≈ 33 µM)
Pseudomonas aeruginosa; Pa-3 1449 V.A A9930, Mueller-Hinton agar, Table 9, read-out: MIC
  MIC: 12.5 µg/mL (≈ 33 µM)
Pseudomonas aeruginosa; Pa-5 M4865, K.C A15150, Mueller-Hinton agar, Table 9, read-out: MIC
  MIC: 6.3 µg/mL (≈ 16.6 µM)
Pseudomonas aeruginosa; Pa-6 No. 5 Levitan A15194, Mueller-Hinton agar, Table 9, read-out: MIC
  MIC: > 100 µg/mL
Pseudomonas aeruginosa; Pa-7 A9843, Mueller-Hinton agar, Table 9, read-out: MIC
  MIC: 50 µg/mL (≈ 132 µM)
Pseudomonas aeruginosa; Pa-10 A21479, Mueller-Hinton agar, Table 9, read-out: MIC
  MIC: > 100 µg/mL
Pseudomonas aeruginosa; Pa-12 A20653, Mueller-Hinton agar, Table 9, read-out: MIC
  MIC: 50 µg/mL (≈ 132 µM)
Pseudomonas aeruginosa; Pa-15 A20717, Mueller-Hinton agar, Table 9, read-out: MIC
  MIC: > 100 µg/mL
Pseudomonas aeruginosa; Pa-16 #130 A20718, Mueller-Hinton agar, Table 9, read-out: MIC
  MIC: 6.3 µg/mL (≈ 16.6 µM)
Pseudomonas aeruginosa; Pa-17 H6, D114, Mueller-Hinton agar, Table 9, read-out: MIC
  MIC: 12.5 µg/mL (≈ 33 µM)
Pseudomonas aeruginosa; Pa-18 H8, D121, Mueller-Hinton agar, Table 9, read-out: MIC
  MIC: 3.1 µg/mL (≈ 8.19 µM)
Pseudomonas aeruginosa; Pa-19 A20229, Mueller-Hinton agar, Table 9, read-out: MIC
  MIC: 12.5 µg/mL (≈ 33 µM)
Pseudomonas aeruginosa; Pa-24 A20896, Mueller-Hinton agar, Table 9, read-out: MIC
  MIC: > 100 µg/mL
Pseudomonas aeruginosa; Pa-25 A20897, Mueller-Hinton agar, Table 9, read-out: MIC
  MIC: 3.1 µg/mL (≈ 8.19 µM)
Pseudomonas aeruginosa; Pa-26 PS32, Mueller-Hinton agar, Table 9, read-out: MIC
  MIC: 0.4 µg/mL (≈ 1.06 µM)
Pseudomonas aeruginosa; Pa-28 C.P.H. 10527/72, Mueller-Hinton agar, Table 9, read-out: MIC
  MIC: 50 µg/mL (≈ 132 µM)
Pseudomonas aeruginosa; Pa-31 A20594, Mueller-Hinton agar, Table 9, read-out: MIC
  MIC: 12.5 µg/mL (≈ 33 µM)
Pseudomonas aeruginosa; Pa-32 A20595, Mueller-Hinton agar, Table 9, read-out: MIC
  MIC: 50 µg/mL (≈ 132 µM)
Pseudomonas aeruginosa; Pa-33 A20598, Mueller-Hinton agar, Table 9, read-out: MIC
  MIC: 12.5 µg/mL (≈ 33 µM)
Pseudomonas aeruginosa; Pa-35, Mueller-Hinton agar, Table 9, read-out: MIC
  MIC: 100 µg/mL (≈ 264 µM)
Pseudomonas aeruginosa; Pa-36, Mueller-Hinton agar, Table 9, read-out: MIC
  MIC: 1.6 µg/mL (≈ 4.23 µM)
Pseudomonas aeruginosa; Pa-37 A20130, Mueller-Hinton agar, Table 9, read-out: MIC
  MIC: 50 µg/mL (≈ 132 µM)
Pseudomonas aeruginosa; Pa-38 A20349, Mueller-Hinton agar, Table 9, read-out: MIC
  MIC: 100 µg/mL (≈ 264 µM)
Pseudomonas aeruginosa; Pa-39 A20641, Mueller-Hinton agar, Table 9, read-out: MIC
  MIC: 12.5 µg/mL (≈ 33 µM)
Pseudomonas aeruginosa; Pa-42 A21229, Mueller-Hinton agar, Table 9, read-out: MIC
  MIC: > 100 µg/mL
Pseudomonas aeruginosa; Pa-43 A21233, Mueller-Hinton agar, Table 9, read-out: MIC
  MIC: 50 µg/mL (≈ 132 µM)
Pseudomonas aeruginosa; Pa-44 A21274, Mueller-Hinton agar, Table 9, read-out: MIC
  MIC: 50 µg/mL (≈ 132 µM)
Pseudomonas aeruginosa; Pa-52 A9926, Mueller-Hinton agar, Table 9, read-out: MIC
  MIC: 50 µg/mL (≈ 132 µM)
Pseudomonas aeruginosa; Pa-54 A20128, Mueller-Hinton agar, Table 9, read-out: MIC
  MIC: 50 µg/mL (≈ 132 µM)
Pseudomonas aeruginosa; Pa-55 A20227, Mueller-Hinton agar, Table 9, read-out: MIC
  MIC: 50 µg/mL (≈ 132 µM)
Pseudomonas aeruginosa; Pa-57 A20546, Mueller-Hinton agar, Table 9, read-out: MIC
  MIC: 50 µg/mL (≈ 132 µM)
Pseudomonas aeruginosa; Pa-58 A20557, Mueller-Hinton agar, Table 9, read-out: MIC
  MIC: 50 µg/mL (≈ 132 µM)
Pseudomonas aeruginosa; Pa-61 A20726, Mueller-Hinton agar, Table 9, read-out: MIC
  MIC: 50 µg/mL (≈ 132 µM)
Pseudomonas aeruginosa; Pa-62 A21213, Mueller-Hinton agar, Table 9, read-out: MIC
  MIC: > 100 µg/mL
Pseudomonas aeruginosa; Pa-66 A21434, Mueller-Hinton agar, Table 9, read-out: MIC
  MIC: 50 µg/mL (≈ 132 µM)
Pseudomonas aeruginosa; Pa-67 A21509, Mueller-Hinton agar, Table 9, read-out: MIC
  MIC: 50 µg/mL (≈ 132 µM)
Pseudomonas aeruginosa; Pa-68 A21510, Mueller-Hinton agar, Table 9, read-out: MIC
  MIC: 50 µg/mL (≈ 132 µM)
Pseudomonas aeruginosa; Pa-69 A21587, Mueller-Hinton agar, Table 9, read-out: MIC
  MIC: 100 µg/mL (≈ 264 µM)
[1]
  concentration at 0.25 h: 11500 ng/mL
  concentration at 0.5 h: 9000 ng/mL
  concentration at 1 h: 5800 ng/mL
P. mirabilis
  MIC: 0.4 µg/mL (≈ 1.06 µM)
Klebsiella sp.
  MIC: 6.3 µg/mL (≈ 16.6 µM)
P. vulgaris
  MIC: 1.6 µg/mL (≈ 4.23 µM)
E. coli; E. coli A9635, Table 8, read-out: MIC
  MIC: 6.3 µg/mL (≈ 16.6 µM)
E. coli; E. coli A9844, Table 8, read-out: MIC
  MIC: 0.4 µg/mL (≈ 1.06 µM)
E. coli; E. coli A20366, Table 8, read-out: MIC
  MIC: > 100 µg/mL
E. coli; E. coli A20520, Table 8, read-out: MIC
  MIC: 1.6 µg/mL (≈ 4.23 µM)
E. coli; E. coli A20664, Table 8, read-out: MIC
  MIC: 0.8 µg/mL (≈ 2.11 µM)
E. coli; E. coli A20732, Table 8, read-out: MIC
  MIC: > 100 µg/mL
E. coli; E. coli A20898, Table 8, read-out: MIC
  MIC: > 100 µg/mL
E. coli; E. coli Juhl A15119, Table 8, read-out: MIC
  MIC: 3.1 µg/mL (≈ 8.19 µM)
E. coli; E. coli NIHJ, Table 8, read-out: MIC
  MIC: 0.4 µg/mL (≈ 1.06 µM)
